Test results from patent US20250026752A1, “POSITIVE ALLOSTERIC MODULATORS OF THE MUSCARINIC ACETYLCHOLINE RECEPTOR M4” (Vanderbilt University, priority 2021, published 2025).

Molecular target: T1, human mAChR M4 (Homo sapiens, UniProt P08173)
T1 construct: expressed in transfected cells; host or cells: CHO-K1 (ATCC), stably expressing hM4 and Gqi5
T1 sequence (P08173 1-479): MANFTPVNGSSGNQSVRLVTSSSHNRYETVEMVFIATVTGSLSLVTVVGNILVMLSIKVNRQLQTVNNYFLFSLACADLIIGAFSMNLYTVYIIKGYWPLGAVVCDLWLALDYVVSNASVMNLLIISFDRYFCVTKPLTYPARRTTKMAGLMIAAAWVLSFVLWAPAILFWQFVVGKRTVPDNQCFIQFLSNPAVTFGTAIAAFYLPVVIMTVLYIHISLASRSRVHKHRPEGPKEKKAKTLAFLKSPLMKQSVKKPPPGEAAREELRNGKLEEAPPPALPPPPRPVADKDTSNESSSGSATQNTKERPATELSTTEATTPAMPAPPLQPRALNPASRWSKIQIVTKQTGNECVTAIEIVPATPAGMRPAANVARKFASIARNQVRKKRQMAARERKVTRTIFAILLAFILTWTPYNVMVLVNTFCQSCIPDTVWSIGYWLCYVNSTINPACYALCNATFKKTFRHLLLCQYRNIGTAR
Experiment: mAChR M4 cell-based functional assay: calcium flux (Fluo-4, FDSS), positive allosteric modulator activity on the EC20 acetylcholine response, hM4-Gqi5 CHO-K1 cells
Details: for Emax at 30 µM: CHO-K1, human M4, % ACh maximum at 30 μM; for EC50: human M4, PAM activity on EC20 acetylcholine response, calcium flux, read-out: Human M4 EC50
Protocol: Human M4 cDNA, along with the chimeric G protein Gqi5, were transfected into Chinese hamster ovary (CHO-K1) cells purchased from the American Type Culture Collection using commercially available Lipofectamine 2000 transfection reagent (Dalby, B. et al., Methods (2004) 33(2), 95-103). hM4-Gqi5 cells were grown in Ham's F-12 medium containing 10% heat-inactivated fetal bovine serum (FBS), 20 mM […], 50 μg/mL G418 sulfate (CAS #108321-42-2), and 500 μg/mL Hygromycin B. rM4-Gqi5 cells were grown in DMEM containing 10% heat-inactivated FBS, 20 mM HEPES, 400 μg/mL G418 sulfate, and 500 μg/mL Hygromycin B.
For high throughput measurement of agonist-evoked increases in intracellular calcium, CHO-K1 cells stably expressing muscarinic receptors were plated in growth medium lacking G418 sulfate and hygromycin at 15,000 cells/20 μL/well in Greiner 384-well black-walled, tissue culture (TC)-treated, clear-bottom plates (VWR). Cells were incubated overnight at 37° C. and 5% C02. The next day, cells were washed using an ELX 405 (BioTek) with assay buffer; the final volume was then aspirated to 20 μL. Next, 20 μL of a 2.3 μM stock of Fluo-4/acetoxymethyl ester (Invitrogen, Carlsbad, CA), prepared as a 2.3 mM stock in DMSO and mixed in a 1:1 ratio with 10% (w/v) Pluronic F-127 and diluted in assay buffer, was added to the wells and the cell plates were incubated for 50 minutes at 37° C. and 5% C02. Dye was removed by washing with the ELX 405 and the final volume was aspirated to 20 μL. Compound master plates were formatted in an 11 point concentration-response curve (CRC) format (1:3 dilutions) in 100% DMSO with a starting concentration of 10 mM using a BRAVO liquid handler (Agilent). Test compound CRCs were then transferred to daughter plates (240 nL) using the Echo acoustic plate reformatter (Labcyte, Sunnyvale, CA) and then diluted into assay buffer (40 μL) to a 2× stock using a Thermo Fisher Combi (Thermo Fisher Scientific, Waltham, MA).
Calcium flux was measured using the Functional Drug Screening System (FDSS) 6000 or 7000 (Hamamatsu Corporation, Tokyo, Japan) as an increase in the fluorescent static ratio. Compounds were applied to cells (20 μL, 2×) using the automated system of the FDSS at 2-4 seconds into the protocol and the data were collected at 1 Hz. At 144 seconds, 10 μL of an EC20 concentration of the muscarinic receptor agonist acetylcholine was added (5×), followed by the addition of 12 μL of an EC80 concentration of acetylcholine at the 230 second time point (5×). Agonist activity was analyzed as a concentration-dependent increase in calcium mobilization upon compound addition. Positive allosteric modulator activity was analyzed as a concentration-dependent increase in the EC20 acetylcholine response. With the acetylcholine EC20 set as baseline, the test compound EC50 is determined as the concentration that produces an increase above baseline of 50% of the maximum increase in acetylcholine response elicted by the test compound. Antagonist activity was analyzed as a concentration-dependent decrease in the ECso acetylcholine response. Concentration-response curves were generated using a four-parameter logistical equation in XLFit curve fitting software (IDBS, Bridgewater, NJ) for Excel (Microsoft, Redmond, WA) or Prism (GraphPad Software, Inc., San Diego, CA).
Compounds were synthesized as described above. Activity (EC50 and Emax) was determined in the mAChR M4 cell-based functional assay as described above and the data are shown in Table 4. The compound numbers correspond to the compound numbers used in Examples 1-33 and Tables 1, 2, and 3.

Row | SMILES | Emax at 30 µM [%] | EC50 [nM]
1 | OC1(C2CC2)CN(c2nc(N3CCc4ncc(N5CCCn6nccc65)cc4C3)c3cccnc3n2)C1 [Compound 248, 3-cyclopropyl-1-(4-(3-(6,7-dihydropyrazolo[1,5-a]pyrimidin-4(5H)-yl)-7,8-dihydro-1,6-naphthyridin-6(5H)-yl)pyrido[2,3-d]pyrimidin-2-yl)azetidin-3-ol] | 82 | 300
2 | Cc1ccc2nc(C3CC3)nc(N3CCc4ncc(-c5cnn(C6CC6)c5)cc4C3)c2c1 [Compound 175, 2-cyclopropyl-4-[3-(1-cyclopropylpyrazol-4-yl)-7,8-dihydro-5H-1,6-naphthyridin-6-yl]-6-methyl-quinazoline] | 77 | 560
3 | CC1(C)CN(c2cnc3c(c2)CN(c2ncnc4ccc(F)cc24)CC3)CCO1 [Compound 103, 4-[6-(6-fluoroquinazolin-4-yl)-7,8-dihydro-5H-1,6-naphthyridin-3-yl]-2,2-dimethyl-morpholine] | 63 | 50
4 | Fc1ccc2ncnc(N3CCc4ncc(-c5ccc(C6CC6)nc5)cc4C3)c2c1 [Compound 37, 4-[3-(6-cyclopropyl-3-pyridyl)-7,8-dihydro-5H-1,6-naphthyridin-6-yl]-6-fluoro-quinazoline] | 88 | 260
5 | Cn1nccc1Nc1cnc2c(c1)CN(c1nc(N3CCOCC3)nc3ccc(F)cc13)CC2 [Compound 185, 6-(6-fluoro-2-morpholino-quinazolin-4-yl)-N-(2-methylpyrazol-3-yl)-7,8-dihydro-5H-1,6-naphthyridin-3-amine] | 83 | 390
6 | Cc1nc(N2CCc3ncc(-c4cn(C)nc4C)cc3C2)c2cc(F)ccc2n1 [Compound 10, 4-[3-(1,3-dimethylpyrazol-4-yl)-7,8-dihydro-5H-1,6-naphthyridin-6-yl]-6-fluoro-2-methyl-quinazoline] | 90 | 120
7 | Cc1ccc2nc(C)nc(N3CCc4ncc(C(F)(F)F)cc4C3)c2c1 [Compound 177, 2,6-dimethyl-4-[3-(trifluoromethyl)-7,8-dihydro-5H-1,6-naphthyridin-6-yl]quinazoline] | 92 | 60
8 | Cc1ccc2ncnc(N3CCc4ncc(-c5cn(C)nc5C)cc4C3)c2c1 [Compound 14, 4-[3-(1,3-dimethylpyrazol-4-yl)-7,8-dihydro-5H-1,6-naphthyridin-6-yl]-6-methyl-quinazoline] | 117 | 160
9 | Cc1nc(N2CCc3ncc(-c4ccc(N(C)C)nc4)cc3C2)c2cc(Cl)ccc2n1 [Compound 49, 5-[6-(6-chloro-2-methyl-quinazolin-4-yl)-7,8-dihydro-5H-1,6-naphthyridin-3-yl]-N,N-dimethyl-pyridin-2-amine] | 81 | 1230
10 | Cc1ccc2c(N3CCc4ncc(C(F)(F)F)cc4C3)nc(C)nc2c1 [Compound 124, 2,7-dimethyl-4-[3-(trifluoromethyl)-7,8-dihydro-5H-1,6-naphthyridin-6-yl]quinazoline] | 43 | 950
11 | Fc1ccc2ncnc(N3CCc4ncc(-c5ccnn5C5COC5)cc4C3)c2c1 [Compound 265, 6-fluoro-4-(3-(1-(oxetan-3-yl)-1H-pyrazol-5-yl)-7,8-dihydro-1,6-naphthyridin-6(5H)-yl)quinazoline] | 76 | 500
12 | CC1(C)CN(c2nc(N3CCc4ncc(N5CCCn6nccc65)cc4C3)c3cccnc3n2)CCO1 [Compound 249, 4-(4-(3-(6,7-dihydropyrazolo[1,5-a]pyrimidin-4(5H)-yl)-7,8-dihydro-1,6-naphthyridin-6(5H)-yl)pyrido[2,3-d]pyrimidin-2-yl)-2,2-dimethylmorpholine] | 47 | 810
13 | Fc1cc2ncnc(N3CCc4ncc(-n5cccn5)cc4C3)c2cc1F [Compound 238, 4-(3-(1H-pyrazol-1-yl)-7,8-dihydro-1,6-naphthyridin-6(5H)-yl)-6,7-difluoroquinazoline] | 65 | 220
14 | Cc1nc(N2CCc3ncc(C(F)(F)F)cc3C2)c2cc(F)ccc2n1 [Compound 130, 6-fluoro-2-methyl-4-[3-(trifluoromethyl)-7,8-dihydro-5H-1,6-naphthyridin-6-yl]quinazoline] | 86 | 80
15 | Cc1ccc(-c2cnc3c(c2)CN(c2nc(C)nc4ccc(Cl)cc24)CC3)cn1 [Compound 51, 6-chloro-2-methyl-4-[3-(6-methyl-3-pyridyl)-7,8-dihydro-5H-1,6-naphthyridin-6-yl]quinazoline] | 95 | 290
16 | COc1ccc2ncnc(N3CCc4ncc(-c5cnc(F)cc5C)cc4C3)c2c1 [Compound 308, 4-(3-(6-fluoro-4-methylpyridin-3-yl)-7,8-dihydro-1,6-naphthyridin-6(5H)-yl)-6-methoxyquinazoline] | 71 | 110
17 | Cc1ccc(-c2cnc3c(c2)CN(c2nc(C)nc4ccc(C(F)(F)F)cc24)CC3)cn1 [Compound 58, 2-methyl-4-[3-(6-methyl-3-pyridyl)-7,8-dihydro-5H-1,6-naphthyridin-6-yl]-6-(trifluoromethyl)quinazoline] | 45 | 1220
18 | Cc1ncc(-c2cnc3c(c2)CN(c2ncnc4ccc(Cl)cc24)CC3)s1 [Compound 40, 5-[6-(6-chloroquinazolin-4-yl)-7,8-dihydro-5H-1,6-naphthyridin-3-yl]-2-methyl-thiazole] | 79 | 110
19 | Fc1cc2ncnc(N3CCc4ncc(C(F)(F)F)cc4C3)c2cc1F [Compound 151, 6,7-difluoro-4-[3-(trifluoromethyl)-7,8-dihydro-5H-1,6-naphthyridin-6-yl]quinazoline] | 102 | 110
20 | Cc1cc(F)ncc1-c1cnc2c(c1)CN(c1ncnc3ccc(Cl)cc13)CC2 [Compound 310, 6-chloro-4-(3-(6-fluoro-4-methylpyridin-3-yl)-7,8-dihydro-1,6-naphthyridin-6(5H)-yl)quinazoline] | 86 | 60
21 | Cc1nc(N2CCc3ncc(-c4ccnn4C)cc3C2)c2cc(F)ccc2n1 [Compound 20, 6-fluoro-2-methyl-4-[3-(2-methylpyrazol-3-yl)-7,8-dihydro-5H-1,6-naphthyridin-6-yl]quinazoline] | 86 | 150
22 | Cc1ncc(-c2cnc3c(c2)CN(c2ncnc4cc(F)c(F)cc24)CC3)s1 [Compound 52, 5-[6-(6,7-difluoroquinazolin-4-yl)-7,8-dihydro-5H-1,6-naphthyridin-3-yl]-2-methyl-thiazole] | 87 | 80
23 | Cc1ccc2nc(C)nc(N3CCc4ncc(N5CCOc6ncccc65)cc4C3)c2c1 [Compound 99, 1-[6-(2,6-dimethylquinazolin-4-yl)-7,8-dihydro-5H-1,6-naphthyridin-3-yl]-2,3-dihydropyrido[2,3-b][1,4]oxazine] | 101 | 100
